ChEMBL document CHEMBL1201862, “PubChem BioAssay data set” (2004)
Activity calls are given as the source filed them.

What was measured:
Cytochrome P450 2C19 = Cytochrome P450 2C19 (Homo sapiens, UniProt P33261); assay: Cytochrome panel assay with activity outcomes. Panel member name: p450-cyp2c19 Compounds with AC50 equal or less than 10 uM are considered active; type: functional; details: read-out: AC50
Cytochrome P450 2D6 = Cytochrome P450 2D6 (Homo sapiens, UniProt P10635);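 further: CYP2D6 member of a cytochrome P450 panel assay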
Cytochrome P450 2D6, sequence (P10635 whole entry): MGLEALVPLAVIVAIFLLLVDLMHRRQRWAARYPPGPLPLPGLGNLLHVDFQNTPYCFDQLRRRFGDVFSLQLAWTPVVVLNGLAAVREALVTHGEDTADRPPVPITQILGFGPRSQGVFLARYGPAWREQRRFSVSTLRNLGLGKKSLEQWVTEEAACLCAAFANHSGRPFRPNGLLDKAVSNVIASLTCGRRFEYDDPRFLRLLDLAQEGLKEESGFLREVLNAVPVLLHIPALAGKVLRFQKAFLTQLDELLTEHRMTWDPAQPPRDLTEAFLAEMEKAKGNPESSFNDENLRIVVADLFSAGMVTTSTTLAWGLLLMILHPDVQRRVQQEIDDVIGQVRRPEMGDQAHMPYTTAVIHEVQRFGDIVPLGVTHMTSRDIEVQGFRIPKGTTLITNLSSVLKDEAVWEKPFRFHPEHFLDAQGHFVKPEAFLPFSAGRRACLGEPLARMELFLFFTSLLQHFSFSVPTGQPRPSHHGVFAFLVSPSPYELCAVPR

Cytochrome P450 3A4 = Cytochrome P450 3A4 (Homo sapiens, UniProt P08684);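 further: CYP3A4 tested as one member of a cytochrome P450 panel screen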
Cytochrome P450 3A4, sequence (P08684 whole entry): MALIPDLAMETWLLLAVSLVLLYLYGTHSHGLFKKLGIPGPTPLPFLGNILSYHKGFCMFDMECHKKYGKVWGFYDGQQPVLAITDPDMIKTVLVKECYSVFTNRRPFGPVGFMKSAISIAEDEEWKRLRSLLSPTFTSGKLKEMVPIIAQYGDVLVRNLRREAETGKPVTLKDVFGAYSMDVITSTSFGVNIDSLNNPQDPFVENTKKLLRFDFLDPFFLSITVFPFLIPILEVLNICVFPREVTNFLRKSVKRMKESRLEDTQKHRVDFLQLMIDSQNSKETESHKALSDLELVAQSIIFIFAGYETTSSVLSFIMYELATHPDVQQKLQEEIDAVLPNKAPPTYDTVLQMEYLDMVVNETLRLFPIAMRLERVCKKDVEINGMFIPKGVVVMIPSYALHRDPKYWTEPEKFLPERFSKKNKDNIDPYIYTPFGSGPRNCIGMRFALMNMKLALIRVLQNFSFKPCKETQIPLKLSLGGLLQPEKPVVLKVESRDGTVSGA

cells = type: functional
[1] = NIH-3T3 fibroblast cytotoxicity, dose response, cytotoxicity control, cell-based, fluorescence, Alamar Blue, secondary assay (AID 2327); type: functional;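 further: NIH-3T3 mouse fibroblasts cultured with fluconazole at 8 µg/mL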
[2] = fluconazole-exposed Candida albicans growth modulators – fluorescence, retest, confirmation (AID 2467); type: functional, cell-based
[3] = Trypanosoma cruzi growth suppression in host cells – NIH3T3 host cells, beta-gal luminescence, confirmation (AID 2044); type: functional, cell-based;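 further: intracellular parasites grown in NIH/3T3 mouse fibroblasts as host cells; luminescent beta-galactosidase reporter signal from transgenic T. cruzi replicating inside host cells; inhibitors lower the luminescence signal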
[4] = microbe, parasite or virus in culture; type: functional; details: Mycobacterium tuberculosis
[5] = NIH3T3 cell viability loss – ATP luminescence, mouse fibroblasts, counter-screen, dose response (AID 2010); type: functional, cell-based;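 further: cells exposed to compound for about 90 hours before reading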
Protein skinhead-1 = biological target: T1, Protein skinhead-1 (Caenorhabditis elegans, UniProt P34707); type: functional
T1 sequence (P34707 whole entry): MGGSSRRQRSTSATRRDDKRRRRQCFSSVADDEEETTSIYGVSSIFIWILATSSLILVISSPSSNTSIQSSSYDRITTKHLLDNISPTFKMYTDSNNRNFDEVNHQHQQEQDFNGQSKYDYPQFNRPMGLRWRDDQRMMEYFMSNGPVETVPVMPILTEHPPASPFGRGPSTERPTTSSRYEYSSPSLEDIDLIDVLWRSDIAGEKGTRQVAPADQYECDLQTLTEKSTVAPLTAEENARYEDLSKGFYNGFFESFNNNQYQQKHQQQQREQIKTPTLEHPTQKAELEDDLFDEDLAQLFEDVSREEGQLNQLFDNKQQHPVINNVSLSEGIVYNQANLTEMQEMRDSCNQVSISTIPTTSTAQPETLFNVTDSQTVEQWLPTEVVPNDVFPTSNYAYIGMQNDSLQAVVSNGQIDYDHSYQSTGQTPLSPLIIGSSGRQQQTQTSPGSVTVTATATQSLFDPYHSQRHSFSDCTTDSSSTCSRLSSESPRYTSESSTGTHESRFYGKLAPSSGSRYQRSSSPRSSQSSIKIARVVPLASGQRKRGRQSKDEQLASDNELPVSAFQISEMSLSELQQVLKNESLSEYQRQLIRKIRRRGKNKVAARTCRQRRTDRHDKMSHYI

Cytochrome P450 2C9 = Cytochrome P450 2C9 (Homo sapiens, UniProt P11712)
Cytochrome P450 2C9, sequence (P11712 whole entry): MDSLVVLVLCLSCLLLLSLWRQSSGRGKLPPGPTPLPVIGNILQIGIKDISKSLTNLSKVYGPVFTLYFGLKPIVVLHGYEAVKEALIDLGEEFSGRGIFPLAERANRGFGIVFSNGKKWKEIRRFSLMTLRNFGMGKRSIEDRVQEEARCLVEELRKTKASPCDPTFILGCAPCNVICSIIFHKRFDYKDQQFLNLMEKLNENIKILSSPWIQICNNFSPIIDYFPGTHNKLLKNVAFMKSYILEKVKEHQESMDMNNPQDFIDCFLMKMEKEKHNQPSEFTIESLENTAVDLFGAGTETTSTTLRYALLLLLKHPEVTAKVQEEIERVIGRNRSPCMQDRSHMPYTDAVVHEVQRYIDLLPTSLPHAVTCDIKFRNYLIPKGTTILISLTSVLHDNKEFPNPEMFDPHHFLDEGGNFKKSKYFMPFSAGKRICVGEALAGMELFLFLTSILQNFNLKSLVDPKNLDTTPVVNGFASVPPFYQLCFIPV

[6] = reduction of Shn3 3'UTR-driven luciferase in osteoblasts – cell-based, Clone20 osteoblasts, firefly luciferase, cherry-picked, dose response (AID 624132); type: functional;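 further: firefly luciferase luminescence from reporter carrying the Shn3 3'UTR in osteoblasts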
[7] = loss of viability in HepG2 cells – cell-based, CellTiter-Glo, cherry-picked, cytotoxicity control for Shn3 inhibitor project, dose response (AID 624134); type: functional

Cytochrome P450 2C19, sequence (P33261 whole entry): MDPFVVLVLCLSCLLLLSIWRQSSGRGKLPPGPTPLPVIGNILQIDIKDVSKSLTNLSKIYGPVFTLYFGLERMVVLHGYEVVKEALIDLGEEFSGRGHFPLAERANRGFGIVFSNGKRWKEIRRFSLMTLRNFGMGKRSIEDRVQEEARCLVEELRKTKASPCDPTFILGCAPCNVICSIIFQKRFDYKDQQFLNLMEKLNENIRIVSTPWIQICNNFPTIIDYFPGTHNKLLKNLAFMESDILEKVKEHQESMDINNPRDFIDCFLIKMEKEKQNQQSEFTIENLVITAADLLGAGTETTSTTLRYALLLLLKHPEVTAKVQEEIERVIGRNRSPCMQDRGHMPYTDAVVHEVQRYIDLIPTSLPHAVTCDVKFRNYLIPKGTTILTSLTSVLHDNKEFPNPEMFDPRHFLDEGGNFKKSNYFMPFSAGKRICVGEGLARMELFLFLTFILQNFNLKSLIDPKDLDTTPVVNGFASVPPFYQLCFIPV

Row | SMILES | AC50 (Cytochrome P450 2D6) | IC50 (Protein skinhead-1) | also measured
1 | CC(C)C(CCNC(=O)CC(Cc1ccccc1)c1ccco1)c1ccco1 (stereo unspecified) | 5.62 µM (inconclusive) | – | AC50 (Cytochrome P450 2C19): 0.631 µM (inconclusive); AC50 (Cytochrome P450 3A4): 39.8 µM (inconclusive)
2 | CCOC(=O)Nc1cccc(OCC(=O)Nc2ccccc2OC)c1 | – | – | IC50 (cells): > 50 µM (active)
3 | c1ccc(CC2CCN(C3=Nc4cccc5cccc3c45)CC2)cc1 | – | – | EC50 [1]: 73.9 µM (active); EC50 [2]: 4.58 µM (active); EC50 [3]: 0.935 µM (active); CC50 [4]: > 40 µM (active); EC50 [5]: > 30 µM (not active)
4 | Cc1cc(C)c2ccc3c(C)c(C)[nH]c3c2n1 | – | < 3.13 µM (active) | –
5 | Clc1ccc(-c2csc(N3CCSCC3)n2)cc1 | – | > 100 µM (inactive) | –
6 | CNc1ncnc2ccc(-c3ccccc3OC)cc12 | 25.1 µM (inconclusive) | – | AC50 (Cytochrome P450 2C19): 31.6 µM (inconclusive)
7 | CCCn1cnc2c(SCc3ccc(Cl)cc3)nc(N)nc21 | 3.16 µM (inconclusive) | – | AC50 (Cytochrome P450 3A4): 6.31 µM (inconclusive); AC50 (Cytochrome P450 2C9): 6.31 µM (inconclusive)
8 | Cc1cnc(CNc2nc(-c3ccoc3)nc3ccccc23)cn1 | 20 µM (inconclusive) | – | –
9 | Clc1ccc(-c2cc(CSc3cccc(Cl)c3)on2)cc1 | – | 59.2 µM (inactive) | –
10 | COc1cccc(Cn2c(=O)c(-c3cccs3)nc3cncnc32)c1 | 6.31 µM (inconclusive) | – | –
11 | COC(=O)C1=C(CN2CCSCC2)NC(=O)NC1c1cc(C)ccc1C (stereo unspecified) | – | > 100 µM (inactive) | –
12 | CC(C)(C)/C(O)=C/c1nc2ccccc2oc1=O | – | – | IC50 (cells): 3.06 µM (active)
13 | CSc1cccc(NC(=O)Nc2ccc(Cl)cc2)c1 | 3.55 µM (inconclusive) | – | AC50 (Cytochrome P450 3A4): 14.1 µM (inconclusive)
14 | CC(C)COc1ccc(-c2nnc(-c3ccco3)o2)cc1 | – | > 100 µM (inactive) | –
15 | CCOC(=O)CN(C(=O)CNC(=O)c1cccs1)C(C(=O)NC1CCCCC1)c1cccs1 (stereo unspecified) | – | > 100 µM (inactive) | –
16 | CCOC(=O)C(Cc1cc(C(C)=O)ccc1OCC)C(=O)OCC | – | > 100 µM (inactive) | –
17 | O=C1c2ccccc2C(=O)N1CCCSc1ccccc1 | 3.16 µM (inconclusive) | – | –
18 | Cc1ccc(S(=O)(=O)N2CCC3(CC2)OCCN3S(=O)(=O)c2c(C)cc(C)cc2C)cc1 | – | – | AC50 [6]: 6.81 µM (active); AC50 [7]: 56.1 µM (active)
19 | COc1ccc(N(CC(=O)NC2CCCCC2)C(=O)CNC(=O)c2cccs2)cc1 | – | > 100 µM (inactive) | –
20 | O=C(NCC1CC1)c1ccc(-c2cn[nH]c2)c2ccoc12 | – | 100 µM (inactive) | –
